Data published in patent US11154621B2, “Liponucleotide-based therapy for COPD” (priority 2017, dated 2021).

Legend:
[1] = tested on: influenza A/WSN/33 (H1N1)-infected mice; assay: Effect of influenza infection and i.p. liponucleotide treatment on lung function; format: in vivo, mouse
[2] = tested on: elastase-induced emphysema in C57BL/6 mice; assay: Mouse model of emphysema (intratracheal elastase administration); format: in vivo; conditions: daily i.p. days 1-13, day 14
Method: To experimentally determine the efficacy of the liponucleotides (lipoNTs) CDP-choline (CDP-CHO), CDP-ethanolamine (CDP-ETH), and CDP-diacylglycerol 16:0/16:0 (CDP-DAG) as therapeutics in a mouse model of emphysema (intratracheal elastase administration) (Yoshida S, et al. Am J Physiol Lung Cell Mol Physiol 2012 303:L852-L860).
(§1) To induce emphysema, porcine pancreatic elastase was administered intratracheally to adult female C57BL/6 mice (n=5-10 per group) by per os intubation under light anesthesia at day 0 and day 7. LipoNTs were administered daily by the intraperitoneal route in 50 μl sterile saline at the timepoints indicated for each group.
Analysis of elastase and lipoNT effects: Data were collected 14 days after first elastase administration in terminal experiments.
1. Static lung compliance (CST) was measured in live mice by the forced-oscillation method using the SciReq flexiVent computer-controlled mechanical ventilator, as in previous studies (Traylor Z P, Yet al. Am J Physiol Lung Cell Mol Physiol 2010 298:L437-L445).
2. Following flexiVent analysis, bronchoalveolar lavage was performed on all mice using 0.8 ml PBS. BALF total and differential cell counts (trypan-blue stained live cells and Giemsa-stained cytospins, respectively) were performed on cell pellets to assess inflammatory cell infiltrates. BALF alveolar macrophage (AM) counts were determined.

[3] = tested on: BLEO-induced pulmonary fibrosis in C57BL/6 mice; assay: Mouse model of pulmonary fibrosis (bleomycin exposure); format: in vivo; conditions: for Mortality: CDP-CHO, CDP-ETH 5 mg/kg, CDP-DAG 0.5 mg/kg
Method: To experimentally determine the efficacy of the liponucleotides (lipoNTs) CDP-choline (CDP-CHO), CDP-ethanolamine (CDP-ETH), and CDP-diacylglycerol 16:0/16:0 (CDP-DAG) as therapeutics in a mouse model of pulmonary fibrosis (bleomycin exposure) (Chung S, et al. Oncotarget 2016 7:17532-17546).
as §1, with “bleomycin (BLEO)” for “porcine pancreatic elastase”, “light ketamine/xylazine” for “light”, “0.” for “0 and day 7.”
Data were collected 21 days after first exposure to BLEO in terminal experiments.
2. Carotid arterial O2 saturation (SaO2) and heart rate were measured in conscious individually-identified animals by pulse oximetry using the MouseOx system.
3. Static lung compliance (CST) was measured in live mice by the forced-oscillation method using the SciReq flexiVent computer-controlled mechanical ventilator, as in previous studies (Traylor Z P, et al. Am J Physiol Lung Cell Mol Physiol 2010 298:L437-L445).
4. Following flexiVent analysis, lungs were removed and flash frozen in liquid N2 for analysis of collagen content. Soluble collagen was measured by a standard Sircol assay.

[4] = infected mice, day 6, i.p. daily from 1-5 days post-infection, CDP-CHO, CDP-ETH 100 μg/mouse, CDP-DAG 10 μg/mouse

Compound | PaO2 equivalent ([1]; equivalent of SaO2 increase, from approximately 65 mmHg) | O2 carrying capacity of blood (CaO2) ([1]; equivalent of SaO2 increase, from approximately 88%) | SaO2 after CDP-choline treatment ([1]; increased from approximately 85%, infected mice) | effects of single dose treatment late in infection compared with daily treatment ([1]; infected mice) | SaO2 (%) [1, 4] | static lung compliance (CST) ([2]; CDP-CHO, CDP-ETH 5 mg/kg, CDP-DAG 0.5 mg/kg) | elastase-induced increase in BALF alveolar macrophages (AMs) [2] | Mortality ([3]; BLEO, daily i.p. D1-20, day 21) | Mortality ([3]; BLEO, daily i.p. D1-20, day 21, listed as CHO) | CST (ml/cmH2O ×10) ([3]; BLEO, daily i.p. D1-20, day 21) | SaO2 (%) ([3]; BLEO, daily i.p. D1-20, day 21) | Collagen ([3]; BLEO, daily i.p. D1-20, lung soluble collagen, day 21) | other beneficial effects in this model of pulmonary fibrosis ([3]; daily from 1-20 days after BLEO) | HR (bpm) [1, 4] | WET:DRY [1, 4]
C[N+](C)(C)CCOP(=O)(O)OP(=O)(O)OC[C@H]1O[C@@H](n2ccc(N)nc2=O)C(O)C1O (stereo partly shown) [CDP-CHO, CDP-choline] | approximately 85 mmHg | approximately 97 % of normal | approximately 96% | as good as those of daily treatment | 93.5 ± 1.0 % | decreases CST | enhanced | significantly attenuated BLEO-induced mortality | 20% | 0.38 ± 0.02 ml/cmH2O ×10 | 97.0 ± 1.0% | 0.79 ± 0.08 mg/mL | no other beneficial effects |  | 
CDP-diacylglycerol [CDP-DAG] |  |  |  |  | 95.2 ± 1.6 % |  |  |  |  |  |  |  |  | 600 ± 10 bpm | 5.8 ± 0.1
